Experimental data taken from US20230227449A1, “AMIDOPYRIMIDONE DERIVATIVES” (Hoffmann-La Roche Inc., priority 2020, published 2023).

Target: Recombinant human Mat2a (Homo sapiens, UniProt P31153)
Experiment: Determination of Mat2A activity (384 well absorbance-based assay, Biomol Green)
Type: biochemical
Conditions: 12.5 nM Mat2A, 100 μM ATP and Methionine, 2% DMSO, 120 minutes at RT, absorbance at 635 nm
Summary of the method: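 Recombinant human Mat2A (12.5 nM) was preincubated with compound for 15 min at RT in HEPES pH 7.5 buffer with 2% DMSO. The reaction was started with 100 μM each of ATP and methionine and ran 120 min at RT. Phosphate was detected with Biomol Green by absorbance at 635 nm.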

Sequence of Recombinant human Mat2a (P31153 whole entry): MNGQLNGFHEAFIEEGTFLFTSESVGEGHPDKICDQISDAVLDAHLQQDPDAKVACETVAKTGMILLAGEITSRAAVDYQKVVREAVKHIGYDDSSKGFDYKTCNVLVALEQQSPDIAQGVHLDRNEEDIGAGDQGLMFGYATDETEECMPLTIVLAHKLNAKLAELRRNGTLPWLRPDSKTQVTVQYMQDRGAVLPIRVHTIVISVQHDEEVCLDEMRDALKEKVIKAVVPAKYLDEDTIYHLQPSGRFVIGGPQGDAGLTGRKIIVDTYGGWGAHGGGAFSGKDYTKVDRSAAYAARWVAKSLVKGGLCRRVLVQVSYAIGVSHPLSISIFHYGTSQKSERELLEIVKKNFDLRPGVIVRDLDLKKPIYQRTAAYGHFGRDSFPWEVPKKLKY

Row | IC50 [nM] | Compound
1 | < 13 | Cc1ncccc1-n1c(=O)nc(N)c2ccc(OC(F)(F)F)cc21 [Example 40, 4-amino-1-(2-methylpyridin-3-yl)-7-(trifluoromethoxy)quinazolin-2(1H)-one]
2 | < 13 | Cc1c(F)cccc1-n1c(=O)nc(N)c2ccc(C(F)(F)F)nc21 [Example 165, 4-amino-1-(3-fluoro-2-methylphenyl)-7-(trifluoromethyl)pyrido[2,3-d]pyrimidin-2 (1H)-one]
3 | < 13 | Cc1c(C#N)cccc1-n1c(=O)nc(N)c2ccc(C(F)(F)F)cc21 [Example 76, 3-(4-amino-2-oxo-7-(trifluoromethyl)quinazolin-1(2H)-yl)-2-methylbenzonitrile]

The remaining lines, values behind:

Row | Compound | IC50 [nM]
4 | Cc1ncoc1-n1c(=O)nc(N)c2ccc(C3CC3)nc21 [Example 50, 4-amino-7-cyclopropyl-1-(4-methyloxazol-5-yl)pyrido[2,3-d]pyrimidin-2-one] | 19
5 | Cc1ncccc1-n1c(=O)nc(N)c2ccc(OC(F)F)cc21 [Example 34] | < 13
6 | Cc1ccccc1-n1c(=O)nc(N)c2ccc(OC(F)F)nc21 [Example 91, 4-amino-7-(difluoromethoxy)-1-(2-methylphenyl)pyrido[2,3-d]pyrimidin-2-one] | < 13
7 | Cc1c(O)cccc1-n1c(=O)nc(N)c2ccc(C3CC3)nc21 [Example 123, 4-amino-7-cyclopropyl-1-(3-hydroxy-2-methylphenyl)pyrido[2,3-d]pyrimidin-2 (1H)-one] | 13
